Measured values reported in a compilation of properties of binary mixtures (doi:10.1016/j.molliq.2016.02.018).

Assay: xn = mol fraction of the nth substance listed
Conditions: 101 kPa

With `CCCC[n+]1ccn(C)c1.O=S(=O)([N-]S(=O)(=O)C(F)(F)F)C(F)(F)F` + CC(=O)[O-].CCCC[n+]1ccn(C)c1 the electrical conductivity (283.15 K, x1 = 1) was 0.207 S/m, the viscosity (283.15 K, x1 = 1) was 106 mPa·s and the electrical conductivity (298.15 K, x1 = 1) was 0.404 S/m. The viscosity (298.15 K, x1 = 1) was 51 mPa·s, the electrical conductivity (333.15 K, x1 = 1) was 1.18 S/m and the viscosity (333.15 K, x1 = 1) was 15.5 mPa·s.

Work on `CC(=O)[O-].CCCC[n+]1ccn(C)c1` + CCCC[n+]1ccn(C)c1.O=S(=O)([N-]S(=O)(=O)C(F)(F)F)C(F)(F)F yielded an electrical conductivity (283.15 K, x2 = 0.2396) of 0.0292 S/m, a viscosity (283.15 K, x2 = 0.2396) of 817 mPa·s and an electrical conductivity (283.15 K, x2 = 0.5245) of 0.0623 S/m. For the same molecule, the viscosity (283.15 K, x2 = 0.5245) was 357 mPa·s, the electrical conductivity (283.15 K, x2 = 0.6541) was 0.0888 S/m and the viscosity (283.15 K, x2 = 0.6541) was 248 mPa·s. For the same molecule, the electrical conductivity (283.15 K, x2 = 0.8097) was 0.133 S/m, the viscosity (283.15 K, x2 = 0.8097) was 165 mPa·s and the electrical conductivity (298.15 K, x2 = 0) was 0.0522 S/m. The viscosity (298.15 K, x2 = 0) was 441 mPa·s, the electrical conductivity (298.15 K, x2 = 0.1057) was 0.0683 S/m and the viscosity (298.15 K, x2 = 0.1057) was 343 mPa·s. It also gave an electrical conductivity (298.15 K, x2 = 0.2396) of 0.0856 S/m, a viscosity (298.15 K, x2 = 0.2396) of 255 mPa·s and an electrical conductivity (298.15 K, x2 = 0.3662) of 0.109 S/m. For the same molecule, the viscosity (298.15 K, x2 = 0.3662) was 192 mPa·s, the electrical conductivity (298.15 K, x2 = 0.5245) was 0.153 S/m and the viscosity (298.15 K, x2 = 0.5245) was 134 mPa·s. It also gave an electrical conductivity (298.15 K, x2 = 0.6541) of 0.203 S/m, a viscosity (298.15 K, x2 = 0.6541) of 101 mPa·s and an electrical conductivity (313.15 K, x2 = 0.2396) of 0.196 S/m. The viscosity (313.15 K, x2 = 0.2396) was 102 mPa·s, the electrical conductivity (313.15 K, x2 = 0.5245) was 0.309 S/m and the viscosity (313.15 K, x2 = 0.5245) was 62 mPa·s. The electrical conductivity (314.3 K, x2 = 0) was 0.146 S/m, the viscosity (314.3 K, x2 = 0) was 132 mPa·s and the electrical conductivity (314.3 K, x2 = 0.321) was 0.237 S/m. The viscosity (314.3 K, x2 = 0.321) was 70 mPa·s, the electrical conductivity (314.3 K, x2 = 0.5245) was 0.33 S/m and the electrical conductivity (333.15 K, x2 = 0) was 0.369 S/m. The viscosity (333.15 K, x2 = 0) was 54.7 mPa·s, the electrical conductivity (333.15 K, x2 = 0.2396) was 0.46 S/m and the viscosity (333.15 K, x2 = 0.2396) was 40.3 mPa·s. The electrical conductivity (333.15 K, x2 = 0.3662) was 0.514 S/m, the viscosity (333.15 K, x2 = 0.3662) was 34.3 mPa·s and the electrical conductivity (333.15 K, x2 = 0.5245) was 0.639 S/m. The viscosity (333.15 K, x2 = 0.5245) was 27.9 mPa·s, the electrical conductivity (333.15 K, x2 = 0.6541) was 0.755 S/m and the viscosity (333.15 K, x2 = 0.6541) was 23.5 mPa·s. It also gave an electrical conductivity (333.15 K, x2 = 0.8097) of 0.932 S/m and a viscosity (333.15 K, x2 = 0.8097) of 19.4 mPa·s.
